As a reminder, the EC50 is the midpoint of the concentration-response curve.

Each structure is given as a SMILES string.

The target in one experiment is T1, Amyloid β (Aβ42) (Homo sapiens, UniProt P05067).
T1 construct: gene APP
Briefly: aggregation inhibition of isolated peptide, quantum-dot fluorescence imaging (MSHTS). The class given is biochemical. From the text:
aggregation inhibition of isolated peptide, quantum-dot fluorescence imaging (MSHTS) on Amyloid β (Aβ42) | RA inhibited the aggregation of Aβ and α-synuclein proteins in vitro in a dose-dependent manner

A further experiment concerns the target T2, α-synuclein (Homo sapiens, UniProt P37840).
T2 construct: gene SNCA
Briefly: aggregation inhibition of purified protein, quantum-dot fluorescence imaging (MSHTS). The format is biochemical.

T1 sequence (P05067 672-713): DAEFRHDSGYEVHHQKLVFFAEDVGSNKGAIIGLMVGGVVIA

Regarding `O=C(/C=C/c1ccc(O)c(O)c1)O[C@H](Cc1ccc(O)c(O)c1)C(=O)O` [RA, rosmarinic acid], the concentration giving a half-maximal response (EC50) at Amyloid β (Aβ42) came out at 20.6 µM; on α-synuclein it was 2.1 µM.

The record behind these values is article PMC7139405, “Real-Time 3D Imaging and Inhibition Analysis of Various Amyloid Aggregations Using Quantum Dots” (International Journal of Molecular Sciences, 2020).
